“And” between values parts separate entries of the source, which are not always exact repeats. Equal entries are not always repeated. Where two headings read alike, the source gives them in different places.
How the values were obtained:
[1] = tested on: Gaeumannomyces graminis; test: Gaeumannomyces graminis / liquid culture (take-all of cereals), well plate mixture test; type: cell-based
[2] = tested on: Pythium ultimum; test: Pythium ultimum / liquid culture (seedling damping off), well plate mixture test; type: cell-based
[3] = tested on: Ustilago nuda; test: Ustilago nuda / liquid culture (barley loose smut), well plate mixture test; type: cell-based
[4] = tested on: Thanatephorus cucumeris (Rhizoctonia solani)
From the text: A synergistic effect exists whenever the action of an active ingredient combination is greater than the sum of the actions of the individual components.
ppm=milligrams of active ingredient (=a.i.) per liter of spray mixture X=% action by active ingredient A) using p ppm of active ingredient Y=% action by active ingredient B) using q ppm of active ingredient. According to COLBY, the expected (additive) action of active ingredients A)+B) using p+q ppm of active ingredient is
If the action actually observed (O) is greater than the expected action (E), then the action of the combination is super-additive, i.e. there is a synergistic effect. In mathematical terms, synergism corresponds to a positive value for the difference of (O-E). In the case of purely complementary addition of activities (expected activity), said difference (O-E) is zero. A negative value of said difference (O-E) signals a loss of activity compared to the expected activity.
Method Description Liquid Culture Tests in Well Plates for Mixtures
Thanatephorus cucumeris (Rhizoctonia solani)/Liquid Culture (Foot Rot, Damping-Off)
Mycelia fragments of a newly grown liquid culture of the fungus are directly mixed into nutrient broth (PDB potato dextrose broth). After placing a (DMSO) solution of the test compounds into a microtiter plate (96-well format), the nutrient broth containing the fungal material is added. The test plates are incubated at 24° C. and the inhibition of growth is determined photometrically 3-4 days after application and percent antifungal activity relative to the untreated check is calculated.

[5] = tested on: Monographella nivalis (Microdochium nivale); test: Monographella nivalis (Microdochium nivale) / liquid culture (foot rot cereals), well plate mixture test; type: cell-based
[6] = tested on: Fusarium culmorum; test: microbe, parasite or virus in culture; type: cell-based; details: read-out: % efficacy observed
[7] = Thanatephorus cucumeris, read-out: % efficacy observed

CO/C=C(/C(=O)OC)c1ccccc1Oc1cc(Oc2ccccc2C#N)ncn1 [Azoxystrobin, azoxystrobin]
% efficacy observed ([1]; Azoxystrobin 0.0008 mg ai/l): 40.7%
% efficacy observed ([1]; Azoxystrobin 0.0016 mg ai/l): 67.0%
% efficacy observed ([1]; Azoxystrobin 0.0031 mg ai/l): 74.8%
% efficacy observed ([2]; Azoxystrobin 0.0250 mg ai/l): 14.0%
% efficacy observed ([2]; Azoxystrobin 0.0500 mg ai/l): 35.6%
% efficacy observed ([2]; Azoxystrobin 0.1000 mg ai/l): 45.3%

COc1ccc(CC(=O)N(O)Cc2ccc(F)cc2)cc1 [Compound D4]
% efficacy observed ([3]; D4 0.0391 mg ai/l): 8.7%
% efficacy observed ([3]; D4 0.0781 mg ai/l): 2.5% and 0.2%
% efficacy observed ([3]; D4 0.1563 mg ai/l): 3.7%
Emax at 0.3125 µg/mL ([3]; Ustilago nuda, D4 0.3125 mg ai/l, read-out: % efficacy observed): 0%
Emax at 0.625 µg/mL ([3]; Ustilago nuda, D4 0.6250 mg ai/l, read-out: % efficacy observed): 0%
Emax at 1.25 µg/mL ([3]; Ustilago nuda, D4 1.2500 mg ai/l, read-out: % efficacy observed): 0%
Emax at 2.5 µg/mL ([3]; Ustilago nuda, D4 2.5000 mg ai/l, read-out: % efficacy observed): 7%
Emax at 20 µg/mL ([3]; Ustilago nuda, D4 20.0000 mg ai/l, read-out: % efficacy observed): 1.3%
% efficacy observed ([1]; D4 0.000000 mg ai/l): 5.3%
Emax at 0.0781 µg/mL ([1]; Gaeumannomyces graminis, D4 0.0781 mg ai/l, read-out: % efficacy observed): 0%
Emax at 0.1563 µg/mL ([1]; Gaeumannomyces graminis, D4 0.1563 mg ai/l, read-out: % efficacy observed): 0%
Emax at 0.3125 µg/mL ([1]; Gaeumannomyces graminis, D4 0.3125 mg ai/l, read-out: % efficacy observed): 0%
Emax at 0.625 µg/mL ([1]; Gaeumannomyces graminis, D4 0.6250 mg ai/l, read-out: % efficacy observed): 0%
Emax at 1.25 µg/mL ([1]; Gaeumannomyces graminis, D4 1.2500 mg ai/l, read-out: % efficacy observed): 0%
Emax at 2.5 µg/mL ([1]; Gaeumannomyces graminis, D4 2.5000 mg ai/l, read-out: % efficacy observed): 0%
Emax at 5 µg/mL ([1]; Gaeumannomyces graminis, D4 5.0000 mg ai/l, read-out: % efficacy observed): 0%
Emax at 10 µg/mL ([1]; Gaeumannomyces graminis, D4 10.0000 mg ai/l, read-out: % efficacy observed): 0%
Emax at 20 µg/mL ([1]; Gaeumannomyces graminis, D4 20.0000 mg ai/l, read-out: % efficacy observed): 0%
% efficacy observed ([4]; D4 0.6250 mg ai/l): 2.1% and 4.6%
Emax at 0.0781 µg/mL ([4]; Thanatephorus cucumeris, read-out: % efficacy observed, D4 0.0781 mg ai/l): 0%
Emax at 0.1563 µg/mL ([4]; Thanatephorus cucumeris, read-out: % efficacy observed, D4 0.1563 mg ai/l): 0%
Emax at 20 µg/mL ([4]; Thanatephorus cucumeris, read-out: % efficacy observed, D4 20.0000 mg ai/l): 0%
Emax at 0.0391 µg/mL ([2]; Globisporangium ultimum, D4 0.0391 mg ai/l, read-out: % efficacy observed): 0%
Emax at 0.1563 µg/mL ([2]; Globisporangium ultimum, D4 0.1563 mg ai/l, read-out: % efficacy observed): 0%
Emax at 0.3125 µg/mL ([2]; Globisporangium ultimum, D4 0.3125 mg ai/l, read-out: % efficacy observed): 0%
Emax at 0.625 µg/mL ([2]; Globisporangium ultimum, D4 0.6250 mg ai/l, read-out: % efficacy observed): 0%
Emax at 1.25 µg/mL ([2]; Globisporangium ultimum, D4 1.2500 mg ai/l, read-out: % efficacy observed): 0%
Emax at 2.5 µg/mL ([2]; Globisporangium ultimum, D4 2.5000 mg ai/l, read-out: % efficacy observed): 0%
Emax at 0.1563 µg/mL ([5]; Monographella nivalis, D4 0.1563 mg ai/l, read-out: % efficacy observed): 6.7%
Emax at 0.3125 µg/mL ([5]; Monographella nivalis, D4 0.3125 mg ai/l, read-out: % efficacy observed): 10.2%
Emax at 0.625 µg/mL ([5]; Monographella nivalis, D4 0.6250 mg ai/l, read-out: % efficacy observed): 0%
Emax at 2.5 µg/mL ([5]; Monographella nivalis, D4 2.5000 mg ai/l, read-out: % efficacy observed): 2.8%
Emax at 5 µg/mL ([5]; Monographella nivalis, D4 5.0000 mg ai/l, read-out: % efficacy observed): 2.1%
Emax at 10 µg/mL ([5]; Monographella nivalis, D4 10.0000 mg ai/l, read-out: % efficacy observed): 6.4%
Emax at 20 µg/mL ([5]; Monographella nivalis, D4 20.0000 mg ai/l, read-out: % efficacy observed): 1.4%
Emax at 10 µg/mL [6]: 0%
Emax at 20 µg/mL [6]: 0%

CC1COC(Cn2cncn2)(c2ccc(Oc3ccc(Cl)cc3)cc2Cl)O1 (stereo not shown) [Difenconazole]
Emax at 0.5 µg/mL ([3]; Ustilago nuda, Difenconazole 0.5000 mg ai/l, read-out: % efficacy observed): 30%
Emax at 1 µg/mL ([3]; Ustilago nuda, Difenconazole 1.0000 mg ai/l, read-out: % efficacy observed): 45.9%
Emax at 2 µg/mL ([3]; Ustilago nuda, Difenconazole 2.0000 mg ai/l, read-out: % efficacy observed): 60.5%
Emax at 0.5 µg/mL ([1]; Gaeumannomyces graminis, Difenconazole 0.5000 mg ai/l, read-out: % efficacy observed): 0%
Emax at 1 µg/mL ([1]; Gaeumannomyces graminis, Difenconazole 1.0000 mg ai/l, read-out: % efficacy observed): 10.6%
Emax at 2 µg/mL ([1]; Gaeumannomyces graminis, Difenconazole 2.0000 mg ai/l, read-out: % efficacy observed): 39%
Emax at 0.5 µg/mL ([4]; Thanatephorus cucumeris, read-out: % efficacy observed, Difenconazole 0.5000 mg ai/l): 0%
Emax at 1 µg/mL ([4]; Thanatephorus cucumeris, read-out: % efficacy observed, Difenconazole 1.0000 mg ai/l): 0%

N#Cc1c[nH]cc1-c1cccc2c1OC(F)(F)O2 [Fludioxonyl]
Emax at 0.0313 µg/mL ([3]; Ustilago nuda, read-out: % efficacy observed): 33.1%
Emax at 0.125 µg/mL [4, 7]: 13.8%
Emax at 0.25 µg/mL [4, 7]: 66.5%
Emax at 0.5 µg/mL [4, 7]: 60.5%
Emax at 1 µg/mL [4, 7]: 86.8%

Cn1cc(C(=O)Nc2ccccc2-c2cc(F)c(F)c(F)c2)c(C(F)F)n1 [Fluxapyroxad, fluxapyroxad]
% efficacy observed ([4]; Fluxapyroxad 0.1875 mg ai/l): 29.7%
% efficacy observed ([4]; Fluxapyroxad 0.3750 mg ai/l): 61.8%
% efficacy observed ([4]; Fluxapyroxad 0.7500 mg ai/l): 71.9%
% efficacy observed ([4]; Fluxapyroxad 1.5000 mg ai/l): 67.9%
% efficacy observed ([5]; Fluxapyroxad 0.1875 mg ai/l): 22.2%
% efficacy observed ([5]; Fluxapyroxad 0.3750 mg ai/l): 55.5%
% efficacy observed ([5]; Fluxapyroxad 0.7500 mg ai/l): 65.4%

COCC(=O)N(c1c(C)cccc1C)[C@H](C)C(=O)OC [Mefenoxam, mefenoxam]
% efficacy observed ([2]; Mefenoxam 0.0078 mg ai/l): 34.1%
% efficacy observed ([2]; Mefenoxam 0.0156 mg ai/l): 37.8%
% efficacy observed ([2]; Mefenoxam 0.0313 mg ai/l): 70.2%
% efficacy observed ([2]; Mefenoxam 0.0625 mg ai/l): 71.3%
% efficacy observed ([2]; Mefenoxam 0.1250 mg ai/l): 84.4%

Cc1nn(C)c(F)c1C(=O)Nc1ccccc1C(C)CC(C)C (stereo not shown) [Penflufen, penflufen]
% efficacy observed ([3]; Penflufen 0.0039 mg ai/l): 23.1%
% efficacy observed ([4]; Penflufen 0.0156 mg ai/l): 20.8%
% efficacy observed ([4]; Penflufen 0.0313 mg ai/l): 7.5%
% efficacy observed ([4]; Penflufen 0.0625 mg ai/l): 42.0%
% efficacy observed ([4]; Penflufen 0.1250 mg ai/l): 64.3%
% efficacy observed ([4]; Penflufen 0.2500 mg ai/l): 83.3%
% efficacy observed ([5]; Penflufen 1.0000 mg ai/l): 19.4%
% efficacy observed ([5]; Penflufen 2.0000 mg ai/l): 56.8%

Cn1cc(C(=O)Nc2ccccc2C2CC2C2CC2)c(C(F)F)n1 (stereo not shown) [Sedaxane, sedaxane]
% efficacy observed ([3]; Sedaxane 0.0117 mg ai/l): 55.0%
% efficacy observed ([1]; Sedaxane 1.5000 mg ai/l): 46.7%
% efficacy observed ([4]; Sedaxane 0.0469 mg ai/l): 0.0%
% efficacy observed ([4]; Sedaxane 0.0938 mg ai/l): 41.1%
% efficacy observed ([4]; Sedaxane 0.1875 mg ai/l): 71.1%
% efficacy observed ([4]; Sedaxane 0.3750 mg ai/l): 72.2%
% efficacy observed ([4]; Sedaxane 0.7500 mg ai/l): 72.2%

CC(C)(C)C(O)(CCc1ccc(Cl)cc1)Cn1cncn1 (stereo not shown) [Tebuconazole, tebuconazole]
Emax at 0.25 µg/mL ([1]; Gaeumannomyces graminis, Tebuconazole 0.2500 mg ai/l, read-out: % efficacy observed): 43.5%
Emax at 0.5 µg/mL ([1]; Gaeumannomyces graminis, Tebuconazole 0.5000 mg ai/l, read-out: % efficacy observed): 47.5%
Emax at 1 µg/mL ([1]; Gaeumannomyces graminis, Tebuconazole 1.0000 mg ai/l, read-out: % efficacy observed): 61%
Emax at 2 µg/mL ([1]; Gaeumannomyces graminis, Tebuconazole 2.0000 mg ai/l, read-out: % efficacy observed): 74%
Emax at 1 µg/mL ([4]; Thanatephorus cucumeris, read-out: % efficacy observed, Tebuconazole 1.0000 mg ai/l): 0%
Emax at 2 µg/mL ([4]; Thanatephorus cucumeris, read-out: % efficacy observed, Tebuconazole 2.0000 mg ai/l): 0%

c1ccc2[nH]c(-c3cscn3)nc2c1 [Thiabendazole, thiabendazole]
Emax at 3 µg/mL [6]: 45.3%
Emax at 6 µg/mL [6]: 71.7%

Reference: patent US20150150253A1, “CROP ENHANCEMENT COMPOSITIONS” (Syngenta Participations AG, priority 2012, published 2015)
